According to patent US12497393B2, “β-lactam compound, use thereof and preparation method therefor” (priority 2020, dated 2025):
In brackets after ≈: the same amount, converted by molar mass. Like-named read-outs stand apart in the source and are kept apart here.

Key:
Experiment in all cases: Antibacterial activity MIC assay (two-fold dilution agar plating)
Format in all cases: cell-based
Enterobacter cloacae = details: for MIC: read-out: Minimal Inhibitory Concentration (MIC)
Method: (§1) Antibacterial Activity-Evaluating Method (MIC Assay)
(§2) In this study, the compounds of the present invention were tested for their antibacterial activities by using two-fold dilution agar plating method and Denley Multipoint Inoculator A400 according to the guidelines of the CLSI/NCCLS standard. The tested strains were amplified by hydrolyzed casein peptone (Mueller-Hinton Agar) broth and Brain and Heart Infusion. The strains used in this study were bacterial strains that were purchased from ATCC or clinically isolated in Chinese hospitals. Aztreonam, polymyxin or levofloxacin was used as positive control. The drugs were diluted with hydrolyzed casein peptone broth to the desired concentrations including 128.0, 64.0, 32.0, 16.0, 8.0, 4.0, 2.0, 1.0, 0.5, 0.25, 0.125, 0.06 and 0.03 μg/mL, and then placed respectively into each well and mixed thoroughly. After inoculation, the tested strains were incubated for 18 hours at a constant temperature of 35° C., and their growth levels were observed. The drug concentration with no microbial growth in the well was recorded as the lowest Minimal Inhibitory Concentration (MIC).

Shigella flexneri = Shigella flexneri ATCC 12022
Method: as §1, §2

Klebsiella Pneumoniae = details: for MIC: Klebsiella pneumoniae, read-out: Minimal Inhibitory Concentration (MIC)
Method: as §1, §2

Salmonella typhi = details: for Minimal Inhibitory Concentration (MIC): Salmonella typhi H901
Method: as §1, §2

Serratia marcescens = Serratia marcescens ATCC 21074
Method: as §1, §2

Proteus mirabilis = details: for Minimal Inhibitory Concentration (MIC): Proteus mirabilis ATCC 49565
Method: as §1, §2

Providencia rettgeri = details: for Minimal Inhibitory Concentration (MIC): Providencia rettgeri ATCC 31052
Method: as §1, §2

Acinetobacter baumannii = details: for MIC: Acinetobacter baumannii, read-out: Minimal Inhibitory Concentration (MIC)
Method: as §1, §2

Pseudomonas aeruginosa = details: for MIC: read-out: Minimal Inhibitory Concentration (MIC)
Method: as §1, §2

[1] = tested on: Stenotrophomonas maltophilia; details: Stenotrophomonas maltophilia ATCC 13636
Method: as §1, §2

Escherichia coli = details: for MIC: Escherichia coli, read-out: Minimal Inhibitory Concentration (MIC)
Method: as §1, §2

Proteus vulgaris = details: for Minimal Inhibitory Concentration (MIC): Proteus vulgaris ATCC 29905
Method: as §1, §2

Citrobacter freundii = Citrobacter freundii ATCC 43864
Method: as §1, §2

Enterobacter aerogenes = Enterobacter aerogenes ATCC 13048
Method: as §1, §2

[2] = Enterobacter cloacae ATCC 43560
[3] = Enterobacter cloacae CDC1000654
[4] = Klebsiella Pneumoniae 09-20, mcr-1(+)
[5] = Klebsiella Pneumoniae 16-2, ESBLs(−)
[6] = Klebsiella Pneumoniae 16-14, ESBLs(+)
[7] = Klebsiella Pneumoniae ATCC 700603, ESBLs(+)
[8] = Klebsiella Pneumoniae ATCC BAA-2146, NDM-1(+)
[9] = Acinetobacter baumannii ATCC 19606
[10] = Pseudomonas aeruginosa ATCC 27853
[11] = Escherichia coli 08-85, mcr-1(+)
[12] = Escherichia coli 13-43, mcr-1(+)
[13] = Escherichia coli 13-66, mcr-1(+)
[14] = Escherichia coli 16-1, ESBLs(+)
[15] = Escherichia coli 16-7, ESBLs(−)
[16] = Escherichia coli 17-R28, CRE, NDM-1(+)
[17] = Escherichia coli ATCC 25922, ESBLs(−)
[18] = Escherichia coli ATCC 35218, ESBLs(+)
[19] = Escherichia coli CDC1001728, NDM-1(+)

CC1(C)[C@H](NC(=O)/C(=N\OC2(C(=O)O)CC2)c2nsc(N)n2)C(=O)N1OS(=O)(=O)O [Compound A-6]
Minimal Inhibitory Concentration (MIC) (Enterobacter cloacae; [2]): 0.5 µg/mL | Minimal Inhibitory Concentration (MIC) (Enterobacter cloacae; [3]): 64 µg/mL | Minimal Inhibitory Concentration (MIC) (Shigella flexneri): 0.06 µg/mL | Minimal Inhibitory Concentration (MIC) (Klebsiella Pneumoniae; [4]): 2 µg/mL | Minimal Inhibitory Concentration (MIC) (Klebsiella Pneumoniae; [5]): 0.5 µg/mL | Minimal Inhibitory Concentration (MIC) (Klebsiella Pneumoniae; [6]): 4 µg/mL | Minimal Inhibitory Concentration (MIC) (Klebsiella Pneumoniae; [7]): 64 µg/mL | Minimal Inhibitory Concentration (MIC) (Klebsiella Pneumoniae; [8]): 32 µg/mL | Minimal Inhibitory Concentration (MIC) (Salmonella typhi): 0.5 µg/mL | Minimal Inhibitory Concentration (MIC) (Serratia marcescens): 1 µg/mL | Minimal Inhibitory Concentration (MIC) (Proteus mirabilis): 1 µg/mL | Minimal Inhibitory Concentration (MIC) (Providencia rettgeri): ≤0.03 µg/mL | Minimal Inhibitory Concentration (MIC) (Acinetobacter baumannii; Acinetobacter baumannii 16-16): >64 µg/mL | Minimal Inhibitory Concentration (MIC) (Acinetobacter baumannii; Acinetobacter baumannii 16-33): 16 µg/mL | Minimal Inhibitory Concentration (MIC) (Acinetobacter baumannii; [9]): 16 µg/mL | Minimal Inhibitory Concentration (MIC) (Pseudomonas aeruginosa; Pseudomonas aeruginosa 16-11): 16 µg/mL | Minimal Inhibitory Concentration (MIC) (Pseudomonas aeruginosa; [10]): 16 µg/mL | Minimal Inhibitory Concentration (MIC) (Pseudomonas aeruginosa; Pseudomonas aeruginosa PAO1): 8 µg/mL | Minimal Inhibitory Concentration (MIC) [1]: 32 µg/mL | Minimal Inhibitory Concentration (MIC) (Escherichia coli; [11]): 4 µg/mL | Minimal Inhibitory Concentration (MIC) (Escherichia coli; [12]): 4 µg/mL | Minimal Inhibitory Concentration (MIC) (Escherichia coli; [13]): 4 µg/mL | Minimal Inhibitory Concentration (MIC) (Escherichia coli; [14]): 0.5 µg/mL | Minimal Inhibitory Concentration (MIC) (Escherichia coli; [15]): 0.5 µg/mL | Minimal Inhibitory Concentration (MIC) (Escherichia coli; [16]): >64 µg/mL | Minimal Inhibitory Concentration (MIC) (Escherichia coli; [17]): 0.5 µg/mL | Minimal Inhibitory Concentration (MIC) (Escherichia coli; [18]): 0.25 µg/mL | Minimal Inhibitory Concentration (MIC) (Escherichia coli; [19]): 4 µg/mL | Minimal Inhibitory Concentration (MIC) (Proteus vulgaris): ≤0.03 µg/mL | Minimal Inhibitory Concentration (MIC) (Citrobacter freundii): 0.25 µg/mL | Minimal Inhibitory Concentration (MIC) (Enterobacter aerogenes): 1 µg/mL

CC1(C)[C@H](NC(=O)/C(=N\OC2(C(=O)O)CCCCC2)c2csc(N)n2)C(=O)N1OS(=O)(=O)O [Compound A-7]
MIC (Enterobacter cloacae; ATCC43560, Enterobacter cloacae ATCC 43560): 1 µg/mL (≈ 1.98 µM) | MIC (Enterobacter cloacae; [3]): 16 µg/mL (≈ 31.6 µM) | MIC (Shigella flexneri; ATCC12022, read-out: Minimal Inhibitory Concentration (MIC)): 2 µg/mL (≈ 3.96 µM) | MIC (Klebsiella Pneumoniae; ATCC700603, Klebsiella Pneumoniae ATCC 700603, ESBLs(+)): 8 µg/mL (≈ 15.8 µM) | MIC (Klebsiella Pneumoniae; ATCCBAA2146, Klebsiella Pneumoniae ATCC BAA-2146, NDM-1(+)): 8 µg/mL (≈ 15.8 µM) | MIC (Klebsiella Pneumoniae; [4]): 2 µg/mL (≈ 3.96 µM) | MIC (Klebsiella Pneumoniae; [5]): 2 µg/mL (≈ 3.96 µM) | MIC (Klebsiella Pneumoniae; [6]): 2 µg/mL (≈ 3.96 µM) | MIC (Klebsiella Pneumoniae; Klebsiella Pneumoniae 17-R27, CRE): 4 µg/mL (≈ 7.91 µM) | MIC (Salmonella typhi; Salmonella enterica, TYPHI, read-out: Minimal Inhibitory Concentration (MIC)): 4 µg/mL (≈ 7.91 µM) | MIC (Serratia marcescens; ATCC21074, read-out: Minimal Inhibitory Concentration (MIC)): 2 µg/mL (≈ 3.96 µM) | MIC (Proteus mirabilis; Proteus mirabilis, ATCC49565, Proteus mirabilis ATCC 49565, read-out: Minimal Inhibitory Concentration (MIC)): 0.12 µg/mL (≈ 0.237 µM) | MIC (Providencia rettgeri; Providencia rettgeri, ATCC31052, Providencia rettgeri ATCC 31052, read-out: Minimal Inhibitory Concentration (MIC)): 0.25 µg/mL (≈ 0.495 µM) | MIC (Acinetobacter baumannii; ATCC19606, Acinetobacter baumannii ATCC 19606): 32 µg/mL (≈ 63.3 µM) | MIC (Acinetobacter baumannii; Acinetobacter baumannii 16-16): > 64 µg/mL | MIC (Acinetobacter baumannii; Acinetobacter baumannii 16-33): 32 µg/mL (≈ 63.3 µM) | MIC (Pseudomonas aeruginosa; ATCC27853, Pseudomonas aeruginosa ATCC 27853): 32 µg/mL (≈ 63.3 µM) | MIC (Pseudomonas aeruginosa; Pseudomonas aeruginosa 16-11): > 64 µg/mL | MIC (Pseudomonas aeruginosa; Pseudomonas aeruginosa PAO1): 32 µg/mL (≈ 63.3 µM) | MIC ([1]; ATCC13636, read-out: Minimal Inhibitory Concentration (MIC)): 16 µg/mL (≈ 31.6 µM) | MIC (Escherichia coli; ATCC25922, Escherichia coli ATCC 25922, ESBLs(−)): 4 µg/mL (≈ 7.91 µM) | MIC (Escherichia coli; ATCC35218, Escherichia coli ATCC 35218, ESBLs(+)): 1 µg/mL (≈ 1.98 µM) | MIC (Escherichia coli; [11]): 2 µg/mL (≈ 3.96 µM) | MIC (Escherichia coli; [12]): 2 µg/mL (≈ 3.96 µM) | MIC (Escherichia coli; [13]): 2 µg/mL (≈ 3.96 µM) | MIC (Escherichia coli; [14]): 1 µg/mL (≈ 1.98 µM) | MIC (Escherichia coli; [15]): 2 µg/mL (≈ 3.96 µM) | MIC (Escherichia coli; [16]): 64 µg/mL (≈ 127 µM) | MIC (Escherichia coli; [19]): 2 µg/mL (≈ 3.96 µM) | MIC (Proteus vulgaris; Proteus vulgaris, ATCC29905, Proteus vulgaris ATCC 29905, read-out: Minimal Inhibitory Concentration (MIC)): 0.25 µg/mL (≈ 0.495 µM) | MIC (Citrobacter freundii; ATCC43864, read-out: Minimal Inhibitory Concentration (MIC)): 2 µg/mL (≈ 3.96 µM) | MIC (Enterobacter aerogenes; Klebsiella aerogenes, ATCC13048, read-out: Minimal Inhibitory Concentration (MIC)): 4 µg/mL (≈ 7.91 µM)

C=CCON=C(C(=O)NC1C(=O)N(OS(=O)(=O)O)C1(C)C)c1csc(N)n1 (stereo not drawn) [Compound B-1]
Minimal Inhibitory Concentration (MIC) (Enterobacter cloacae; [2]): 0.25 µg/mL | Minimal Inhibitory Concentration (MIC) (Enterobacter cloacae; [3]): 8 µg/mL | Minimal Inhibitory Concentration (MIC) (Shigella flexneri): 0.5 µg/mL | Minimal Inhibitory Concentration (MIC) (Klebsiella Pneumoniae; [4]): 1 µg/mL | Minimal Inhibitory Concentration (MIC) (Klebsiella Pneumoniae; [5]): 0.5 µg/mL | Minimal Inhibitory Concentration (MIC) (Klebsiella Pneumoniae; [6]): 0.5 µg/mL | Minimal Inhibitory Concentration (MIC) (Klebsiella Pneumoniae; [7]): 16 µg/mL | Minimal Inhibitory Concentration (MIC) (Klebsiella Pneumoniae; [8]): 4 µg/mL | Minimal Inhibitory Concentration (MIC) (Salmonella typhi): 0.25 µg/mL | Minimal Inhibitory Concentration (MIC) (Serratia marcescens): 1 µg/mL | Minimal Inhibitory Concentration (MIC) (Proteus mirabilis): 0.125 µg/mL | Minimal Inhibitory Concentration (MIC) (Providencia rettgeri): ≤0.03 µg/mL | Minimal Inhibitory Concentration (MIC) (Acinetobacter baumannii; Acinetobacter baumannii 16-16): 32 µg/mL | Minimal Inhibitory Concentration (MIC) (Acinetobacter baumannii; Acinetobacter baumannii 16-33): 8 µg/mL | Minimal Inhibitory Concentration (MIC) (Acinetobacter baumannii; [9]): 8 µg/mL | Minimal Inhibitory Concentration (MIC) (Pseudomonas aeruginosa; Pseudomonas aeruginosa 16-11): >64 µg/mL | Minimal Inhibitory Concentration (MIC) (Pseudomonas aeruginosa; [10]): 64 µg/mL | Minimal Inhibitory Concentration (MIC) (Pseudomonas aeruginosa; Pseudomonas aeruginosa PAO1): 16 µg/mL | Minimal Inhibitory Concentration (MIC) [1]: 16 µg/mL | Minimal Inhibitory Concentration (MIC) (Escherichia coli; [11]): 0.5 µg/mL | Minimal Inhibitory Concentration (MIC) (Escherichia coli; [12]): 1 µg/mL | Minimal Inhibitory Concentration (MIC) (Escherichia coli; [13]): 1 µg/mL | Minimal Inhibitory Concentration (MIC) (Escherichia coli; [14]): 0.25 µg/mL | Minimal Inhibitory Concentration (MIC) (Escherichia coli; [15]): 0.25 µg/mL | Minimal Inhibitory Concentration (MIC) (Escherichia coli; [17]): 0.5 µg/mL | Minimal Inhibitory Concentration (MIC) (Escherichia coli; [18]): 0.5 µg/mL | Minimal Inhibitory Concentration (MIC) (Escherichia coli; [19]): 4 µg/mL | Minimal Inhibitory Concentration (MIC) (Proteus vulgaris): ≤0.03 µg/mL | Minimal Inhibitory Concentration (MIC) (Citrobacter freundii): 0.5 µg/mL | Minimal Inhibitory Concentration (MIC) (Enterobacter aerogenes): 1 µg/mL
